Target: GDP-perosamine synthase (Caulobacter vibrioides, UniProt Q9A9H3)
Assay: HPLC assay of substrate decrease
Type: biochemical
Conditions: substrate inhibition, competitive versus glutamate (ping-pong, Eq. 1); 100 μM PLP, 20 mM HEPES pH 7.5, 110 mM NaCl, 10 mM MgCl2, room temperature

Chain of GDP-perosamine synthase (Q9A9H3 whole entry): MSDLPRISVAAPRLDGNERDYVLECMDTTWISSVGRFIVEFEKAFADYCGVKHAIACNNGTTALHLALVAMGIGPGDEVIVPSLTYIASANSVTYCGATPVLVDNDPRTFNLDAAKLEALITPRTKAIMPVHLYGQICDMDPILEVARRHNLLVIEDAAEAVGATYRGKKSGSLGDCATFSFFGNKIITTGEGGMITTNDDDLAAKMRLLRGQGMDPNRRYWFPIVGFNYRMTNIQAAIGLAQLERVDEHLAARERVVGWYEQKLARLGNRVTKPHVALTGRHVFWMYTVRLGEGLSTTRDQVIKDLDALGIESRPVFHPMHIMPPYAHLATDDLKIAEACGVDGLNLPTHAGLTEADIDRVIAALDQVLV

C[C@H]1O[C@H](OP(=O)(O)OP(=O)(O)OC[C@H]2O[C@@H](n3cnc4c(=O)[nH]c(N)nc43)[C@H](O)[C@@H]2O)[C@@H](O)[C@@H](O)C1=O [GDP-4-keto-6-deoxymannose]
Ki sugar: 89 ± 34 µM

Reference: PMC5811991 (Biochemistry, 2008)
